# How the values were obtained:
# S. mutans biofilm = S. mutans biofilm formation inhibition; format: cell-based; conditions: for MBIC50: S. mutans biofilm formation
# S. aureus MRSA 24433 = test: Growth of MRSA 24433, cannabinoid alone and combined with antibiotic (MIC/FIC/FICI); format: cell-based; conditions: for FIC METH / MIC METH: MRSA 24433 growth; for MIC METH: methicillin alone
# [1] = system: S. aureus MRSA 24433 biofilm; test: Biofilm formation of MRSA 24433, cannabinoid alone and combined with antibiotic (MBIC/FBIC/FBICI); format: cell-based; conditions: for MBIC METH: methicillin alone
# S.aureus MRSA 33592 = test: Growth of MRSA 33592, cannabinoid alone and combined with antibiotic (MIC/FIC/FICI); format: cell-based; conditions: MRSA 33592 growth; for MIC METH: methicillin alone; for MIC AMP: ampicillin alone
# [2] = system: S.aureus MRSA 33592 biofilm; test: Biofilm formation of MRSA 33592, cannabinoid alone and combined with antibiotic (MBIC/FBIC/FBICI); format: cell-based; conditions: for MBIC METH: methicillin alone; for MBIC AMP: ampicillin alone
# S.aureus MRSA 43300 = test: Growth of MRSA 43300, cannabinoid alone and combined with antibiotic (MIC/FIC/FICI); format: cell-based; conditions: MRSA 43300 growth; for MIC METH: methicillin alone; for MIC AMP: ampicillin alone
# [3] = system: S.aureus MRSA 43300 biofilm; test: Biofilm formation of MRSA 43300, cannabinoid alone and combined with antibiotic (MBIC/FBIC/FBICI); format: cell-based; conditions: for MBIC METH: methicillin alone; for MBIC AMP: ampicillin alone
# [4] = system: fluconazole resistant C. albicans strains; format: cell-based; conditions: each agent alone or in combination; data not shown
# C. albicans biofilm [5] = test: MTT assay of C. albicans biofilm; format: cell-based
# Method: To investigate the effect of the agents on preformed biofilms, biofilms were allowed to mature in for 24 h at 37° C. in a 6-well plate. The biofilms were washed twice with PBS. The active agents were then applied. The plates were further incubated for 24 h at 37° C. The amounts of biofilms, were determined quantitatively using a standard MTT reduction assay as described previously. Briefly, biofilms were overlaid with […] of 3-(4,5-dimethyl-2-thiazolyl)-2,5-diphenyl-2H-tetrazolium bromide (MTT) and incubated for 2 h at 37° C. Under these conditions, the lightly yellowish MTT was reduced to a blue tetrazolium salt accumulated within the metabolic active biofilms. The stain was then dissolved in DMSO and the absorbance value was measured at 570 nm. The accumulation of tetrazolium salt by the reduction of MTT is proportional to the number of viable cells growing in biofilm. Prior to dissolving in DMSO, biofilms were photographed and visualized. Assay was performed in triplicate.
# C. albicans biofilm [6] = test: C. albicans biofilm formation inhibition; format: cell-based
# C. albicans = C. albicans growth (MIC); format: cell-based; conditions: single C. albicans growth; highest tested dose 64 μg/ml
# C. albicans biofilm [7] = test: Microscopic observation of fungal morphology in biofilm; format: cell-based
# C. albicans biofilm [8] = test: Flow cytometry analysis of viable cells in fungal biofilm; format: cell-based; conditions: for granularity: control 136 AU; for cell size: control 260 AU
# [9] = system: mixed C. albicans-S. mutans biofilm; test: Co-species C. albicans-S. mutans biofilm formation inhibition; format: cell-based
# [10] = system: mixed S. mutans-C. albicans; test: Growth of C. albicans-S. mutans co-culture; format: cell-based; conditions: all tested doses
# S. mutans = S. mutans growth (MIC); format: cell-based; conditions: single S. mutans growth
# P. aeruginosa biofilm = test: CLSM of treated P. aeruginosa biofilm
molecule,measurement,setting,value
"CCCCCCCC/C=C\CCCCCCCC(=O)NCCO [OEA, oleoyl ethanolamide]",MBIC50,S. mutans biofilm,64 µg/mL
"COc1cccc(OC)c1C(=O)N[C@@H]1C(=O)N2[C@@H]1SC(C)(C)[C@@H]2C(=O)O [METH, methicillin, reference compound]",FIC METH,"S. aureus MRSA 24433; MIC of methicillin in combination with AEA, Table 1",16 µg/mL
same,FIC METH,"S. aureus MRSA 24433; MIC of methicillin in combination with AEA, Table 6B",16
same,FIC METH,"S. aureus MRSA 24433; MIC of methicillin in combination with ARAS, Table 3B",>64
same,MIC METH,S. aureus MRSA 24433; Table 1,>64 µg/mL
same,MIC METH,S. aureus MRSA 24433; Table 3B,> 64 µg/mL
same,MIC METH,S. aureus MRSA 24433; Table 6B,> 64 µg/mL
same,MIC,"S. aureus MRSA 24433; Staphylococcus aureus, MRSA, read-out: MIC METH",> 64 µg/mL
same,FBIC METH,"[1]; MBIC of methicillin in combination with AEA, Table 1",16 µg/mL
same,FBIC METH,"[1]; MBIC of methicillin in combination with AEA, Table 6B",16
same,FBIC METH,"[1]; MBIC of methicillin in combination with ARAS, Table 3B",16
same,MBIC METH,[1]; Table 1,>64 µg/mL
same,MBIC METH,[1]; Table 3B,>64
same,MBIC METH,[1]; Table 6B,>64
same,FIC METH,"S.aureus MRSA 33592; MIC of methicillin in combination with AEA, Table 6A",16
same,FIC METH,"S.aureus MRSA 33592; MIC of methicillin in combination with ARAS, Table 3A",8
same,MIC METH,S.aureus MRSA 33592; Table 3A,32 µg/mL
same,MIC METH,S.aureus MRSA 33592; Table 6A,32 µg/mL
same,FBIC METH,"[2]; MBIC of methicillin in combination with AEA, Table 6A",8
same,FBIC METH,"[2]; MBIC of methicillin in combination with ARAS, Table 3A",8
same,MBIC METH,[2]; Table 3A,32
same,MBIC METH,[2]; Table 6A,32
same,FIC METH,"S.aureus MRSA 43300; MIC of methicillin in combination with AEA, Table 6C",8
same,FIC METH,"S.aureus MRSA 43300; MIC of methicillin in combination with ARAS, Table 3C",2
same,MIC METH,S.aureus MRSA 43300; Table 3C,32 µg/mL
same,MIC METH,S.aureus MRSA 43300; Table 6C,32 µg/mL
same,FBIC METH,"[3]; MBIC of methicillin in combination with AEA, Table 6C",8
same,FBIC METH,"[3]; MBIC of methicillin in combination with ARAS, Table 3C",8
same,MBIC METH,[3]; Table 3C,32
same,MBIC METH,[3]; Table 6C,32
"OC(Cn1cncn1)(Cn1cncn1)c1ccc(F)cc1F [FLU, fluconazole, reference compound]",growth of fluconazole resistant fungal strains,[4],not affected
"CCCCCCCC/C=C\CCCCCCCC(=O)NCC(=O)O [OG, oleoyl glycine]",MBIC50,S. mutans biofilm,32 µg/mL
"CCCCC/C=C\C/C=C\C/C=C\C/C=C\CCCC(=O)OC(CO)CO [2-AG, 2-arachidonoyl glycerol]",C. albicans biofilm formation (MTT assay),C. albicans biofilm [5],dose-dependent inhibition
"CCCCCCC(C)(C)c1cc(O)c2c(c1)OC(C)(C)[C@@H]1CC=C(CO)C[C@@H]21 [HU210, 1,1-Dimethylheptyl-11-hydroxy-tetrahydrocannabinol]",biofilm formation at highest tested dose,C. albicans biofilm [6]; HU210 64 μg/ml,Almost no biofilm formed
same,"MBIC50 (minimal biofilm inhibitory concentration 50, 50% of biofilm inhibition)",C. albicans biofilm [6]; single C. albicans biofilm formation,2 µg/mL
same,"MIC, fungal growth",C. albicans,not detected at tested doses
same,fungal morphology in biofilm,C. albicans biofilm [7]; 8 μg/ml,influenced fungal morphology
same,yeast-to-hyphae transition,C. albicans biofilm [7]; 64 μg/ml,appearance of mainly yeast form of C. albicans
same,density of fungal mycelium,C. albicans biofilm [7]; increasing doses up to 64 μg/ml,decreased dose-dependently
same,granularity,C. albicans biofilm [8]; 8 μg/ml,50 AU
same,cell size,C. albicans biofilm [8]; 8 μg/ml,110 AU
same,viable C. albicans cells in biofilm,"C. albicans biofilm [8]; 8 μg/ml, untreated control 88%",20%
same,viable cells in fungal biofilm,C. albicans biofilm [8]; 64 μg/ml,totally reduced viable cells
same,granularity,C. albicans biofilm [8]; 64 μg/ml,40 AU
same,cell size,C. albicans biofilm [8]; 64 μg/ml,100 AU
same,MBIC50,[9],4 µg/mL
same,growth of co-culture,[10],not affected
same,MIC,S. mutans,2 µg/mL
same,streptococcal biofilm formation,S. mutans biofilm; HU210 2 μg/ml,No streptococcal biofilm was formed
"CC1(C)S[C@@H]2[C@H](NC(=O)[C@H](N)c3ccccc3)C(=O)N2[C@H]1C(=O)O [AMP, ampicillin, reference compound]",FIC AMP,"S.aureus MRSA 33592; MIC of ampicillin in combination with AEA, Table 8A",8
same,FIC AMP,"S.aureus MRSA 33592; MIC of ampicillin in combination with ARAS, Table 5A",64
same,MIC AMP,S.aureus MRSA 33592; Table 5A,128 µg/mL
same,MIC AMP,S.aureus MRSA 33592; Table 8A,128 µg/mL
same,FBIC AMP,"[2]; MBIC of ampicillin in combination with AEA, Table 8A",8
same,FBIC AMP,"[2]; MBIC of ampicillin in combination with ARAS, Table 5A",32
same,MBIC AMP,[2]; Table 5A,128
same,MBIC AMP,[2]; Table 8A,128
same,FIC AMP,"S.aureus MRSA 43300; MIC of ampicillin in combination with AEA, Table 8B",8
same,FIC AMP,"S.aureus MRSA 43300; MIC of ampicillin in combination with ARAS, Table 5B",16
same,MIC AMP,S.aureus MRSA 43300; Table 5B,256 µg/mL
same,MIC AMP,S.aureus MRSA 43300; Table 8B,> 128 µg/mL
same,FBIC AMP,"[3]; MBIC of ampicillin in combination with AEA, Table 8B",8
same,FBIC AMP,"[3]; MBIC of ampicillin in combination with ARAS, Table 5B",64
same,MBIC AMP,[3]; Table 5B,256
same,MBIC AMP,[3]; Table 8B,>128
"CCCCCCCCCCCCCCCC(=O)NCCO [PEA, palmitoyl ethanolamide]",layers/depth of P. aeruginosa biofilm,P. aeruginosa biofilm,reduced layers/depth of biofilm
gentamycin [reference compound],decrease of MIC in combination,S.aureus MRSA 33592; AEA with gentamicin vs agent alone,32 fold
same,FIC GEN,"S.aureus MRSA 33592; MIC of gentamicin in combination with AEA, Table 7",4
same,FIC GEN,"S.aureus MRSA 33592; MIC of gentamycin in combination with ARAS, Table 4",4
same,MIC GEN,"S.aureus MRSA 33592; gentamicin alone, Table 7",128 µg/mL
same,MIC GEN,"S.aureus MRSA 33592; gentamycin alone, Table 4",128 µg/mL
same,FBIC GEN,"[2]; MBIC of gentamicin in combination with AEA, Table 7",8
same,FBIC GEN,"[2]; MBIC of gentamycin in combination with ARAS, Table 4",4
same,MBIC GEN,"[2]; gentamicin alone, Table 7",128
same,MBIC GEN,"[2]; gentamycin alone, Table 4",128
"CCCCCCCC/C=C\CCCCCCCC(=O)N[C@@H](C)C(=O)O [OA, oleoyl alanine]",MBIC50,S. mutans biofilm,16 µg/mL

# — patent publication US20210379010A1, “COMPOSITIONS COMPRISING CANNABINOIDS FOR USE IN THE TREATMENT OF BIOFILM AND CONDITIONS ASSOCIATED WITH MICROBIAL, FUNGAL, BACTERIAL INFECTIONS” (Yissum Research Development Company of The Hebrew …, priority 2018, published 2021)
